Key:
[1] = target: T1, human GST-AMPK α2β2γ1 (Homo sapiens, UniProt O43741+P54646); experiment: Radiolabel SAMS kinase assay, GST-AMPK from HEK293T/17 cells immobilised on glutathione-Sepharose; format: biochemical; conditions: 1 µM compound
T1 construct: triply transfected with full-length AMPK α1 or α2 (NH2-terminal GST fusion, pDEST27 vector); full-length AMPK α1 or α2 (NH2-terminal GST fusion, pDEST27 vector), β1 or β2 (COOH-terminal FLAG fusion, pcDNA3.1 vector); FLAG (C); made in house; host or cells: HEK293T/17 cells, transient triple transfection
Source text: (§1) We generated a series of compounds to investigate whether modification of the SC4 2-hydroxybiphenyl LHS fragment affects isoform selectivity, some of which (MSG008-MSG011) are presented in Table 1. We also synthesised compound MSG012 (example I-3-54 [32]), which was reported to activate α2β2γ1 with ∼100-fold greater potency compared with α1β1γ1. MSG012 differs from SC4 by substitution of the 2-hydroxyphenyl LHS fragment with 3-cyclohexen-4-yl-1-carboxylic acid, and 2-methylbenzoic acid RHS fragment with 1-hydroxy-N,N-dimethylcyclohexan-4-yl-1-carboxamide. Our initial screen involved measuring the activity of recombinant human GST-AMPK complexes expressed in HEK293T/17 cells and immobilised on glutathione-Sepharose (Supplementary Figure S1). Enzyme activity was measured by radiolabelling the synthetic SAMS peptide substrate in the absence or presence of 1 µM compound. Consistent with our previous characterisation, SC4 activated α1β1γ1, α2β1γ1 and α2β2γ1 >2.3-fold, and weakly activated α1β2γ1 1.3-fold (Figure 1A). […] The γ isoform had little influence on AMPK activation by MSG011 as most γ2 and γ3 complexes were activated >2.2-fold at 1 µM, with α1β2γ2 being the only exception (1.6-fold activation). […] Accordingly, MSG010, MSG011 and MSG012 can be classified as pan AMPK activators.
(§2) Adherent HEK293T/17 cells at ∼50% confluency were triply transfected with full-length AMPK α1 or α2 (NH2-terminal GST fusion, pDEST27 vector), β1 or β2 (COOH-terminal FLAG fusion, pcDNA3.1 vector), and γ1, γ2 or γ3 (NH2-terminal HA fusion, pMT2 vector) in the presence of FuGENE HD transfection reagent (Promega) as per the manufacturers protocol. Cells were harvested 48 hours post-transfection by first gently washing in ice cold phosphate buffered saline (PBS; Sigma–Aldrich), then scraping in ice cold lysis buffer (50 mM TRIS pH 7.5, 150 mM NaCl, 10% (v/v) glycerol, 50 mM NaF, 5 mM sodium pyrophosphate, 1% (v/v) Triton X-100, cOmplete protease inhibitor cocktail). Lysates were clarified by centrifugation (16 000g, 3 min, 4°C), flash frozen in liquid N2 and stored at −80°C until analysis. For radioactive kinase assays, AMPK was immobilised on glutathione Sepharose 4B resin (GE Healthcare) by incubation with lysates for 1.5 h at 4°C. Following centrifugation (1000g, 3 min, 4°C), the resin was washed twice in purification buffer (50 mM HEPES pH 7.4, 150 mM NaCl, 10% (v/v) glycerol, 0.02% (v/v) Tween-20), once in 50 mM HEPES pH 7.4 with 0.02% (v/v) Tween-20, then resuspended to a 50% slurry with 50 mM HEPES pH 7.4 and 10 µl added to the activity assays. For in solution kinase assays, α1β1γ1 AMPK was eluted from glutathione-Sepharose by incubating with purification buffer supplemented with 40 mM reduced glutathione (Sigma–Aldrich).
(§3) AMPK activity was determined by phosphorylation of the SAMS peptide (Purar Chemicals, sequence: NH2-HMRSAMSGLHLVKRR-COOH) in a 25 µl reaction volume containing 100 µM SAMS peptide, 5 mM MgCl2, 200 µM ATP, [γ-^32P]-ATP (PerkinElmer) and assay buffer (50 mM HEPES pH 7.4, 1 mM DTT and 0.02% (v/v) Tween-20) and purified AMPK. Phosphotransferase activity was conducted at 30°C for 10 min and reactions were quenched by spotting 15 µl onto phosphocellulose ion-exchange chromatography paper (made in-house), followed by repeated washes in 1% H3PO4 (Merck Millipore). Ultima Gold liquid scintillation fluid (5 ml; PerkinElmer) was added to vials containing dried phosphocellulose papers, and the level of ^32P-transfer to the SAMS peptide was determined using a Tri-Carb 2900TR liquid scintillation counter (PerkinElmer).

[2] = target: T2, human GST-AMPK α1β1γ1 (Homo sapiens, UniProt Q13131+Q9Y478); experiment: as above; format: biochemical; conditions: 1 µM compound
T2 construct: triply transfected with full-length AMPK α1 or α2 (NH2-terminal GST fusion, pDEST27 vector); full-length AMPK α1 or α2 (NH2-terminal GST fusion, pDEST27 vector), β1 or β2 (COOH-terminal FLAG fusion, pcDNA3.1 vector); FLAG (C); made in house; host or cells: HEK293T/17 cells, transient triple transfection
Source text: as §1, §2, §3

[3] = target: T3, human GST-AMPK α2β1γ1 (Homo sapiens, UniProt P54646+Q9Y478); experiment: as above; format: biochemical; conditions: 1 µM compound
T3 construct: triply transfected with full-length AMPK α1 or α2 (NH2-terminal GST fusion, pDEST27 vector); full-length AMPK α1 or α2 (NH2-terminal GST fusion, pDEST27 vector), β1 or β2 (COOH-terminal FLAG fusion, pcDNA3.1 vector); FLAG (C); made in house; host or cells: HEK293T/17 cells, transient triple transfection
Source text: as §1, §2, §3

[4] = target: T4, human GST-AMPK α1β2γ1 (Homo sapiens, UniProt O43741+Q13131); experiment: as above; format: biochemical; conditions: 1 µM compound
T4 construct: triply transfected with full-length AMPK α1 or α2 (NH2-terminal GST fusion, pDEST27 vector); full-length AMPK α1 or α2 (NH2-terminal GST fusion, pDEST27 vector), β1 or β2 (COOH-terminal FLAG fusion, pcDNA3.1 vector); FLAG (C); made in house; host or cells: HEK293T/17 cells, transient triple transfection
Source text: as §1, §2, §3

[5] = system: AMPK β1-Ser108 exchanged for Ala; parameters: method as in PMID 24352254, PMID 29657085; conditions: cited from earlier work

T4 sequence (Q13131 whole entry, the tested form may be a part): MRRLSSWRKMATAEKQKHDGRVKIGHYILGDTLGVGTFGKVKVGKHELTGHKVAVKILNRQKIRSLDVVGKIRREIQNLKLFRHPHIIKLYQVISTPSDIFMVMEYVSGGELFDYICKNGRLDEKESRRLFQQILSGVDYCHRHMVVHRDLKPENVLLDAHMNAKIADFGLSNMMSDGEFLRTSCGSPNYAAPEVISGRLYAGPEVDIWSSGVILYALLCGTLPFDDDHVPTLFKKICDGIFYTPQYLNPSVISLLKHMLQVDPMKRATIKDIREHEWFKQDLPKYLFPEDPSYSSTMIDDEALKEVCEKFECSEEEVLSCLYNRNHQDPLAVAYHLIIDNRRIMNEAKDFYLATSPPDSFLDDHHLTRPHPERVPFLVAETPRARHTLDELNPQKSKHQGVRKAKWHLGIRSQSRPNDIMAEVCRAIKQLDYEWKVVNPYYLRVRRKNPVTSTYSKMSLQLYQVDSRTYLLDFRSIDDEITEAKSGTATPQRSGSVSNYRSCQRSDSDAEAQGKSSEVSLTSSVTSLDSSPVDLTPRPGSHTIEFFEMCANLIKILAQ
T4 sequence (O43741 whole entry, the tested form may be a part): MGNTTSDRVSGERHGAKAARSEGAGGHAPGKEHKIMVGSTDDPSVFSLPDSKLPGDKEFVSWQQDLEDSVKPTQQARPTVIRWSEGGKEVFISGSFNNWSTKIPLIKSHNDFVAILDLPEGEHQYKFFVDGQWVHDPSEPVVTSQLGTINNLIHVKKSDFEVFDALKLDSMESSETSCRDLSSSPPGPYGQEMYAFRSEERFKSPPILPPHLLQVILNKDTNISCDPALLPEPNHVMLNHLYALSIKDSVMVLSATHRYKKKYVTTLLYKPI
T4 sequence (P54619 whole entry partner, the tested form may be a part): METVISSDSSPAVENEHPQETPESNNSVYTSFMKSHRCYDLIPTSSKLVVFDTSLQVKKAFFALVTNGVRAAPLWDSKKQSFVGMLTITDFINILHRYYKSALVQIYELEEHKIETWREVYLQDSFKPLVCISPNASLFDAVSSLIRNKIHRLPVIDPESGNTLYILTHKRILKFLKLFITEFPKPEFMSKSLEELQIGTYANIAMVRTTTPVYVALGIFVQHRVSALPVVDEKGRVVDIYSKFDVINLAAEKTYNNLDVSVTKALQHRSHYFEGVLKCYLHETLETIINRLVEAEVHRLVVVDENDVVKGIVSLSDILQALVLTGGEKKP
T2 sequence (Q13131 whole entry, the tested form may be a part): as the sequence (Q13131 whole entry, the tested form may be a part) above
T2 sequence (Q9Y478 whole entry, the tested form may be a part): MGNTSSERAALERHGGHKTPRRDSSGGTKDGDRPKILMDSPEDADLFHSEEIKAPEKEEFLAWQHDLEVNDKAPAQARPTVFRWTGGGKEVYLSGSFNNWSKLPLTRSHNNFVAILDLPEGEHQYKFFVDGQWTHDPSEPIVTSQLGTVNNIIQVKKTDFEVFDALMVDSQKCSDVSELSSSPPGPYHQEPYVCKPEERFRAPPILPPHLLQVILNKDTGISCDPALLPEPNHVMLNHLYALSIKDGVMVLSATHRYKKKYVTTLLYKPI
T2 sequence (P54619 whole entry partner, the tested form may be a part): as the sequence (P54619 whole entry partner, the tested form may be a part) above
T1 sequence (P54646 whole entry, the tested form may be a part): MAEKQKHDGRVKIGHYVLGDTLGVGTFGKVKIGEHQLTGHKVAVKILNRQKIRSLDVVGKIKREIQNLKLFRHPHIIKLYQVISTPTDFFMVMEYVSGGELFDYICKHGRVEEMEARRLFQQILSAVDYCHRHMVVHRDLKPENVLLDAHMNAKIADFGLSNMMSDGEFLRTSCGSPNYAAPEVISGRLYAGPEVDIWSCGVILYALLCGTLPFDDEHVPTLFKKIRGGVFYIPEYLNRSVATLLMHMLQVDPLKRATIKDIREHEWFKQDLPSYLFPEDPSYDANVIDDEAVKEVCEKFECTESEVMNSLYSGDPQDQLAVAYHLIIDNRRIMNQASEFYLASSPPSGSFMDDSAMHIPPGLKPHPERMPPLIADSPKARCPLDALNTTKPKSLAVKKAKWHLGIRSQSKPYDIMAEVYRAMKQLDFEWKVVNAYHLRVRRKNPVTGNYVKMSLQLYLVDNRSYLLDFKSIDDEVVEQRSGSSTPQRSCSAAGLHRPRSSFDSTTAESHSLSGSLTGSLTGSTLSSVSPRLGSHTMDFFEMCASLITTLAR
T1 sequence (O43741 whole entry, the tested form may be a part): as the sequence (O43741 whole entry, the tested form may be a part) above
T1 sequence (P54619 whole entry partner, the tested form may be a part): as the sequence (P54619 whole entry partner, the tested form may be a part) above
T3 sequence (P54646 whole entry, the tested form may be a part): as the sequence (P54646 whole entry, the tested form may be a part) above
T3 sequence (Q9Y478 whole entry, the tested form may be a part): as the sequence (Q9Y478 whole entry, the tested form may be a part) above
T3 sequence (P54619 whole entry partner, the tested form may be a part): as the sequence (P54619 whole entry partner, the tested form may be a part) above

Structure (SMILES) | fold AMPK activation relative to vehicle [1] | fold AMPK activation relative to vehicle [2] | fold AMPK activation relative to vehicle [3] | fold AMPK activation relative to vehicle [4] | reduction of activating potency on loss of β1-Ser108 phosphorylation via exchange for Ala [5]
Cc1ccc(Oc2nc3nc(C#Cc4ccccc4O)c(Cl)cc3[nH]2)cc1C(=O)O [MSG009, 5-((6-Chloro-5-((2-hydroxyphenyl)ethynyl)-1H-imidazo[4,5-b]pyridin-2-yl)oxy)-2-methylbenzoic acid] | reduced fold activation relative to SC4 | reduced fold activation relative to SC4 | reduced fold activation relative to SC4 | 1.5 fold | 
COCCc1cccc(-c2nc3nc(Oc4ccc(C)c(C(=O)O)c4)[nH]c3cc2Cl)c1 [MSG008, 5-((6-Chloro-5-(3-(2-methoxyethyl)phenyl)-1H-imidazo[4,5-b]pyridin-2-yl)oxy)-2-methylbenzoic acid] | ≤ 1.3 fold | ≤ 1.3 fold | ≤ 1.3 fold | ≤ 1.3 fold | 
Cc1ccc(Oc2nc3cc(-c4ccc5c(ccn5C)c4)c(Cl)cc3[nH]2)cc1C(=O)O [compound 991] |  |  |  |  | 40 fold
Cc1ccc(Oc2nc3nc(-c4ccc(C5=CCC(C(=O)O)CC5)cc4)c(Cl)cc3[nH]2)cc1C(=O)O (stereo not shown) [MSG010, 4′-(2-(3-carboxy-4-methylphenoxy)-6-chloro-1H-imidazo[4,5-b]pyridin-5-yl)-2,3,4,5-tetrahydro-[1,1′-biphenyl]-4-carboxylic acid] | > 2.2 fold | > 2.2 fold | > 2.2 fold | > 2.2 fold | 

Reference: article PMC9317966, “Structure-function analysis of the AMPK activator SC4 and identification of a potent pan AMPK activator” (Biochemical Journal, 2022)
